Measured values from ChEMBL document CHEMBL3421576, “N-((1,3-Diphenyl-1H-pyrazol-4-yl)methyl)anilines: A novel class of anti-RSV agents” (Bioorg Med Chem Lett, 2015).
pEC50: −log10 of the molar value.

How the values were obtained:
[1] = Cytotoxicity against bovine MDBK cells assessed as cell viability after 72 hrs by MTT method; type: cell-based, Bos taurus; conditions: cattle
[2] = system: Bovine viral diarrhea virus 1; test: Antiviral activity against BVDV infected in bovine MDBK cells assessed as protection against viral-induced cytopathogenecity after 3 to 4 days by MTT method; type: functional, organism-based
[3] = Cytotoxicity against hamster BHK21 cells assessed as cell viability after 72 hrs by MTT method; type: cell-based, Mesocricetus auratus, BHK-21
Yellow fever virus = test: Antiviral activity against YFV infected in hamster BHK21 cells assessed as protection against viral-induced cytopathogenecity after 3 to 4 days by MTT method; type: functional, organism-based, BHK-21
[4] = Cytotoxicity against African green monkey Vero 76 cells assessed as cell viability after 48 to 96 hrs by MTT method; type: cell-based; conditions: chlorocebus sabaeus
[5] = system: Respiratory syncytial virus; test: Antiviral activity against RSV infected in African green monkey Vero 76 cells after 5 days by plaque reduction assay; type: functional, organism-based
[6] = Cytotoxicity against human MT4 cells assessed as cell viability after 96 hrs by MTT method; type: cell-based
[7] = system: Human immunodeficiency virus 1; test: Antiviral activity against HIV1 infected in human MT4 cells assessed as protection against viral-induced cytopathogenecity after 4 days by MTT method; type: functional, organism-based; conditions: Human immunodeficiency virus 1, MT4, 96 h
[8] = system: Mammalian orthoreovirus 1; test: Antiviral activity against Reovirus 1 infected in hamster BHK21 cells assessed as protection against viral-induced cytopathogenecity after 3 to 4 days by MTT method; type: functional, cell-based; conditions: Mammalian orthoreovirus 1, BHK-21
Coxsackievirus B5 = test: Antiviral activity against Coxsackievirus B5 infected in African green monkey Vero 76 cells after 3 days by plaque reduction assay; type: functional, organism-based
Enterovirus C = test: Antiviral activity against Poliovirus Sb-1 infected in African green monkey Vero 76 cells after 2 days by plaque reduction assay; type: functional, organism-based
Vaccinia virus = test: Antiviral activity against Vaccinia virus infected in African green monkey Vero 76 cells after 3 days by plaque reduction assay; type: functional, organism-based, Orthopoxvirus vaccinia
Human alphaherpesvirus 1 = test: Antiviral activity against HSV1 infected in African green monkey Vero 76 cells after 3 days by plaque reduction assay; type: functional, organism-based
[9] = system: Vesicular stomatitis virus; test: Antiviral activity against VSV infected in African green monkey Vero 76 cells after 2 days by plaque reduction assay; type: functional, organism-based
[10] = Selectivity index, ratio of CC50 for African green monkey Vero 76 cells to EC50 for RSV infected in African green monkey Vero 76 cells
[11] = Selectivity index, ratio of CC50 for hamster BHK21 cells to EC50 for YFV infected in hamster BHK21 cells; set-up: species or system BHK-21
[12] = Bovine viral diarrhea virus isolates and strains, MDBK
[13] = human respiratory syncytial virus, Vero, 120 h
[14] = Enterovirus C, Sb-1, Vero, 48 h
[15] = Orthopoxvirus vaccinia, Vero, 72 h
[16] = Human alphaherpesvirus 1, Vero, 72 h
[17] = Vesicular stomatitis virus, Vero, 48 h

| SMILES | CC50 at 72 h [1] | pEC50 [2, 12] | CC50 at 72 h [3] | pEC50 (Yellow fever virus; Yellow fever virus, BHK-21) | CC50 ([4]; Vero 76 cells) | pEC50 [5, 13] | CC50 at 96 h [6] | pEC50 [7] | pEC50 [8] | pEC50 (Coxsackievirus B5; Enterovirus B, Vero, 72 h) | pEC50 (Enterovirus C; [14]) | pEC50 (Vaccinia virus; [15]) | pEC50 (Human alphaherpesvirus 1; [16]) | pEC50 [9, 17] | Ratio CC50/EC50 [10] | also measured |
| --- | --- | --- | --- | --- | --- | --- | --- | --- | --- | --- | --- | --- | --- | --- | --- | --- |
| FC(F)(F)c1ccc(NCc2cn(-c3ccccc3)nc2-c2ccc(C(F)(F)F)cc2)cc1 | 26 µM | < 4.59 | 27 µM | < 4.43 | 26 µM | < 4.59 | > 100 µM | < 4.00 | < 4.57 | < 4.59 | < 4.59 | < 4.59 | < 4.59 | < 4.59 |  |  |
| Cc1ccc(NCc2cn(-c3ccccc3)nc2-c2ccc(C)cc2)cc1 | > 100 µM | < 4.00 | > 100 µM | < 4.00 | > 100 µM | 4.55 | > 100 µM | < 4.00 | < 4.00 | < 4.00 | < 4.00 | < 4.00 | < 4.00 | < 4.00 | >3.6 |  |
| C[C@@]1(O)[C@H](O)[C@@H](CO)O[C@H]1n1ccc(N)nc1=O |  |  | > 100 µM |  |  |  |  |  | 5.22 |  |  |  |  |  |  |  |
| FC(F)(F)c1ccc(NCc2cn(-c3ccccc3)nc2-c2ccc(Br)cc2)cc1 | 46 µM | < 4.34 | 20 µM | < 4.55 | 28 µM | < 4.55 | > 100 µM | < 4.00 | < 4.70 | < 4.55 | < 4.55 | < 4.55 | < 4.55 | < 4.55 |  |  |
| Nc1nc2c(ncn2COCCO)c(=O)[nH]1 [ACYCLOVIR] |  |  |  |  | > 100 µM |  |  |  |  |  |  |  | 5.55 |  |  |  |
| FC(F)(F)c1ccc(NCc2cn(-c3ccccc3)nc2-c2ccc(Cl)cc2)cc1 | 31 µM | < 4.51 | 17 µM | < 4.77 | 18 µM | < 4.74 | > 100 µM | < 4.00 | < 4.77 | < 4.74 | < 4.74 | < 4.74 | < 4.74 | < 4.74 |  |  |
| Clc1ccc(NCc2cn(-c3ccccc3)nc2-c2ccc(Br)cc2)cc1 |  |  |  |  |  |  |  |  |  |  |  |  |  |  | >11.1 | pEC50 ([2]; mdbk): ≤ 4.00; pEC50 (Yellow fever virus; bhk-21): 4.37; Ratio CC50/EC50 [11]: >2.3; CC50 ([4]; vero 76): > 100 µM; pEC50 ([5]; vero): 5.05; pEC50 (Coxsackievirus B5; vero): < 4.00; pEC50 (Enterovirus C; vero): < 4.00; pEC50 (Vaccinia virus; vero): < 4.00; pEC50 (Human alphaherpesvirus 1; vero): < 4.00; pEC50 ([9]; vero): < 4.00 |
| Brc1ccc(NCc2cn(-c3ccccc3)nc2-c2ccc(Br)cc2)cc1 | > 100 µM | < 4.00 | > 100 µM | 4.27 | 88 µM | 5.10 | > 100 µM | < 4.00 | < 4.00 | < 4.06 | < 4.06 | < 4.06 | < 4.06 | < 4.06 | 11 | Ratio CC50/EC50 [11]: >1.8 |
| FC(F)(F)c1ccc(-c2nn(-c3ccccc3)cc2CNc2ccc(Br)cc2)cc1 | 64 µM | < 4.19 | 28 µM | < 4.55 | 17 µM | 5.30 | > 100 µM | < 4.00 | < 4.55 | < 4.77 | < 4.77 | < 4.77 | < 4.77 | < 4.77 | 3.4 |  |
| COc1c(C)c2c(c(O)c1C/C=C(\C)CCC(=O)O)C(=O)OC2 [MYCOPHENOLIC ACID] |  |  |  |  | 19 µM |  |  |  |  |  |  | 5.82 |  |  |  |  |
| Cc1ccc(-c2nn(-c3ccccc3)cc2CNc2ccc(Br)cc2)cc1 | > 100 µM | < 4.00 | > 100 µM | < 4.00 | 92 µM | 4.96 | > 100 µM | < 4.00 | < 4.00 | < 4.04 | < 4.04 | < 4.04 | < 4.04 | < 4.04 | 8.4 |  |
| O=c1cnn([C@@H]2O[C@H](CO)[C@@H](O)[C@H]2O)c(=O)[nH]1 [6-AZAURIDINE] |  |  | > 100 µM | 4.34 | 10 µM | 6.05 |  |  |  |  |  |  |  |  | 11.1 | Ratio CC50/EC50 [11]: >2.2 |
| Cc1ccc(NCc2cn(-c3ccccc3)nc2-c2ccc(Br)cc2)cc1 | > 100 µM | < 4.00 | > 100 µM | < 4.00 | > 100 µM | 4.96 | > 100 µM | < 4.00 | < 4.00 | < 4.00 | < 4.00 | < 4.00 | < 4.00 | < 4.00 | >9.1 |  |
| FC(F)(F)c1ccc(-c2nn(-c3ccccc3)cc2CNc2ccc(Cl)cc2)cc1 | 44 µM | < 4.36 | 31 µM | < 4.51 | 10 µM | < 5.00 | > 100 µM | < 4.00 | < 4.51 | < 4.10 | < 4.10 | < 4.10 | < 4.10 | < 4.10 |  |  |
| FC(F)(F)c1ccc(NCc2cn(-c3ccccc3)nc2-c2ccccc2)cc1 | 34 µM | < 4.47 | 37 µM | < 4.43 | 17 µM | < 4.77 | > 100 µM | < 4.00 | < 4.43 | < 4.12 | < 4.12 | < 4.12 | < 4.12 | < 4.12 |  |  |
| Cc1ccc(-c2nn(-c3ccccc3)cc2CNc2ccc(C(F)(F)F)cc2)cc1 | > 100 µM | < 4.00 | 88 µM | < 4.00 | 45 µM | < 4.35 | > 100 µM | < 4.00 | < 4.06 | < 4.35 | < 4.35 | < 4.35 | < 4.35 | < 4.35 |  |  |
| Cc1cc(CCCOc2c(C)cc(-c3noc(C(F)(F)F)n3)cc2C)on1 [PLECONARIL] |  |  |  |  | 80 µM |  |  |  |  | 8.30 | 5.66 |  |  |  |  |  |
